Results from patent publication US20200393446A1, “BIOLUMINESCENT SCREENING TEST FOR DETECTING CELL CYTOLYSIS” (Centre National de la Recherche Scientifique (CNRS), priority 2017, published 2020).

Assays:
NK cells = assay: NK cell cytotoxicity assay: NanoLuc release from K562-NanoLuc cells co-cultured with compound-treated PBMC; assay type: cell-based, human; settings: PBMCs incubated 16 hours with Clobenpropit, 400,000 PBMCs/16,000 K562-NanoLuc, four hours of co-culture, FIG. 3B
Description: PBMC from healthy donors were incubated overnight in the absence or presence of compounds to be tested. Unless specified otherwise, PBMC were plated in 96-well round-bottom plates at a concentration of 400,000 cells/well in a final volume of 100 μL. After 16 hours, 16.000 K562-NanoLuc or twINNE cells were added to cultures wells (100 μL of cell suspension at 160,000 cells/ml). Total volume in culture wells was 200 μL, and plates were centrifuged briefly for 2 min at 1,200 rpm. Unless specified otherwise, 20 μL of culture supernatants were collected and NanoLuc activity was determined by adding 40 μL of RPMI-1640 and 30 μL of NanoLuc reagent (Promega) in black, flat-bottom, 96½-well plates. Bioluminescence was measured during 0.1 s with a luminometer (Enspire; Perkin Elmer).

K562-NanoLuc cells = assay: Lysis of K562-NanoLuc cells by detergent, NanoLuc activity in supernatant; assay type: cell-based, human; settings: cells contacted with detergent, FIG. 1A

Row | activity of the NanoLuc enzyme in the supernatant of K562-NanoLuc cells (K562-NanoLuc cells) | Compound | cytolytic activity of NK cells (NanoLuc activity in supernatant) (NK cells)
1 | – | NC(=NCc1ccc(Cl)cc1)SCCCc1cnc[nH]1 [Clobenpropit] | completely inhibited
2 | increased | NP40 | –
